Where “and” joins values, the source holds several entries; their conditions need not be identical. Equal values may be shown once.
Assays:
[1] = target: T1, 5-hydroxytryptamine receptor 2C (Rattus norvegicus, UniProt P08909); assay: Inhibition of [3H]mesulergine binding to rat 5-hydroxytryptamine 2C receptor
T1 sequence (P08909 whole entry): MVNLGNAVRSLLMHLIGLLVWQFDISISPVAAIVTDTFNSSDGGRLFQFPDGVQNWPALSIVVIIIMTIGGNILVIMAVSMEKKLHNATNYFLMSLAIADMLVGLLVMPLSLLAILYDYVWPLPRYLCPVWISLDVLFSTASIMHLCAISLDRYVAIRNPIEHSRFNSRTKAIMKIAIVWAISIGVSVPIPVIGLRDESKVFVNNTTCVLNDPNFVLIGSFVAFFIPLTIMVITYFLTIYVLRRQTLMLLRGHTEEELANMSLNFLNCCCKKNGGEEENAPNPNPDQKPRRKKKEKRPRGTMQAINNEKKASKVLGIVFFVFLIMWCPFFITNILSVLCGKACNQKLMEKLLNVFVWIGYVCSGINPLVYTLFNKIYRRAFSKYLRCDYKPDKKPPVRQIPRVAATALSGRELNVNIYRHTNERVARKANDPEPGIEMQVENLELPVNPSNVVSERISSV

D(1A) dopamine receptor = D(1A) dopamine receptor (Rattus norvegicus, UniProt P18901)
Sequence of D(1A) dopamine receptor (P18901 whole entry): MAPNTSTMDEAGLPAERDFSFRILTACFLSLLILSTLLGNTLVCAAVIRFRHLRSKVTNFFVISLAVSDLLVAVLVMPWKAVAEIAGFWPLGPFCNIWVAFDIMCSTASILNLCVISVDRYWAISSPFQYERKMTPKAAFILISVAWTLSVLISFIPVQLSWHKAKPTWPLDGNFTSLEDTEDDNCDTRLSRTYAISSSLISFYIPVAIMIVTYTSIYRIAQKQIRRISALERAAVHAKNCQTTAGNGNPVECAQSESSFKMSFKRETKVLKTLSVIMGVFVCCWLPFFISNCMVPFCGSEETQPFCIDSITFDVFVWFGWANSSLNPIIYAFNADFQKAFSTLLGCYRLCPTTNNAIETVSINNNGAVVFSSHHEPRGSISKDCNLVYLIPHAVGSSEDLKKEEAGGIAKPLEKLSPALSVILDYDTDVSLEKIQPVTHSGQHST
Description: Inhibition of [3H]-SCH- 23390 binding to rat dopamine D1 receptor

D(3) dopamine receptor = D(3) dopamine receptor (Homo sapiens, UniProt P35462); assay: biochemical
Sequence of D(3) dopamine receptor (P35462 whole entry): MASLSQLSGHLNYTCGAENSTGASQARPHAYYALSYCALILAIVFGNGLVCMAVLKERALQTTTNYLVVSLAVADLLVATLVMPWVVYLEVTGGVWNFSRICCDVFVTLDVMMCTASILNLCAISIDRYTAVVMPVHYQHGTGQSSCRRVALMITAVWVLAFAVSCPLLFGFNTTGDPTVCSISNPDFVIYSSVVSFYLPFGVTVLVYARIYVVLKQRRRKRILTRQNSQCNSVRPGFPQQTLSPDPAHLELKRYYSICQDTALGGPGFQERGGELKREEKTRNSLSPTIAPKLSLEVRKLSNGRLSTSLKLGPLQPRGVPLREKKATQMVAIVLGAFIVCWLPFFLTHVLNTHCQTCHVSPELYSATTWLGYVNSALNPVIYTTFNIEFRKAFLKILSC
Description: Inhibition of [3H]7-OH-DPAT binding to Dopamine D3 receptor expressed in Sf9 cells

Rattus norvegicus [2] = assay: In vivo effective dose against catalepsy response was determined in rats; assay type: functional
Rattus norvegicus [3] = assay: In vivo effective dose was determined against apomorphine climbing in rats; assay type: functional
Rattus norvegicus [4] = assay: In vivo effective dose of compound against 5-MeO-DMT induced head twitches in rats; assay type: functional
Rattus norvegicus [5] = assay: In vivo effective dose against 5-MeO-DMT-induced head twitches in rats was determined; assay type: functional
Rattus norvegicus [6] = species on record: Rattus norvegicus; assay: animal or person
Description: In vivo effective dose against spontaneous locomotor activity was determined in rats

Rattus norvegicus [7] = species on record: Rattus norvegicus; assay: animal or person; remark: listed apart in the source
Description: In vivo effective dose against conditioned avoidance response was determined in rats

Row | Compound | Ki [1] [nM] | Ki (D(1A) dopamine receptor) [nM] | Ki (D(3) dopamine receptor) [nM] | ED50 (Rattus norvegicus [2]) | ED50 (Rattus norvegicus [3]) | ED50 (Rattus norvegicus [4]) [mg/kg] | ED50 (Rattus norvegicus [5]) [µmol/kg] | ED50 (Rattus norvegicus [6]) | ED50 (Rattus norvegicus [7])
1 | CN1CCN(C2=Cc3cc(Cl)ccc3Cn3cccc32)CC1 | 3.8 | 47.4 | 24.2 |  |  |  |  |  | 
2 | CN1CCN(C2=Cn3cccc3Sc3ccccc32)CC1 |  |  |  | > 100 mg/kg and > 336 µmol/kg | 1.64 mg/kg and 5.51 µmol/kg | 1.99 | 6.69 | 0.51 mg/kg | 
3 | CN1CCN(C2=Nc3cc(Cl)ccc3Nc3ccccc32)CC1 [CLOZAPINE] |  |  |  | > 100 mg/kg and > 306 µmol/kg | 5.72 mg/kg and 17.5 µmol/kg | 5.35 | 16.4 |  | 
4 | CN1CCN(C2=Cc3ccccc3Cn3cccc32)CC1 |  |  | 224 | > 100 mg/kg and > 357 µmol/kg | 0.5 µmol/kg and 0.14 mg/kg | 0.12 | 0.43 | 1.6 mg/kg and 5.73 µmol/kg | 0.56 mg/kg and 2 µmol/kg
5 | CN1CCN(C2=Cn3cccc3Sc3sccc32)CC1 |  | 4.91 | 25 |  |  |  |  |  | 
6 | Cc1ccc2n1Cc1ccccc1C=C2N1CCN(C)CC1 | 15 | 230 | 88.6 |  |  |  |  |  | 
